# According to patent US10500198B2, “Bis-benzylidine piperidone proteasome inhibitor with anticancer activity” (The Johns Hopkins University, priority 2013, dated 2019):
# Experiments:
# ES-2 = test: Cell viability after 48-hr treatment (Table 1); assay type: cell-based, human; details: XTT assay
# Method: (§1) Cells seeded at the concentration of 1,000 cells/well for HeLa, 5,000 cells/well for ES2 and HCT116 and 10,000-20,000 cells/well for other cell lines in 100 μL medium in 96-well plate were treated with RA series compounds at specified concentrations. […]
# NCl-H929 = test: Cell viability after 48-hr treatment (Table 1); assay type: cell-based, human; details: XTT assay
# Method: as §1
# [1] = system: purified recombinant UCH37 (with or without RPN13) or purified RP; test: Ub-AMC hydrolysis assay; assay type: biochemical
# Method: FIGS. 1 A-D show percent cell viability of RPMI-8226, ANBL6, and their respective in vitro selected bortezomib-resistant cell lines RPMI-8226-V10R and ANBL6-V10R as a function of 48 hr treatment with the indicated compounds. FIGS. 1 E-H show percent cell viability of indicated MM cell lines as a function of 48 hr treatment with the indicated compounds. […] Actin was used as a loading control. […] In FIG. 9C-E, purified 20S proteasomes were treated for 30 min with or without compounds (1 μM) prior to the addition of the specific fluorogenic substrate for chymotryptic (9C), tryptic (9D) or PGPH (9E) hydrolytic proteasome capacities. Mean±SD fluorescence associated with AMC released from the substrate was measured at 45 min. […] DMSO was added to all samples to a final concentration of 0.1% (upper panel). The effect of DMSO is highlighted by including ubiquitin—AMC (0.5 μM) hydrolysis with 2 nM UCH37 lacking DMSO (orange, bottom panel). In FIG. 9H, purified 19S RP (500 nM) in buffer was treated with corresponding compounds 30 min at 37° C. and AMC cleavage was measured with a fluorometer for 20 min. Ubal was used as a positive control.
# Reaction mixtures contained 500 nM of the purified 19S RP (R&D Systems) in 19S enzyme assay buffer and 1 μM Ub-AMC. Release of free AMC by the enzyme reaction was determined by measuring its fluorescence at 380 nm (excitation) and 440 nm (emission). […]
# RPN13 Pru domain = target: T1, RPN13 Pru domain (Homo sapiens, UniProt Q16186); test: NMR and LC-MS of RA190-exposed RPN13; assay type: binding; details: site-directed mutagenesis, NMR
# T1 construct: RPN13 (1-150), which includes its Pru domain; made in house
# Method: By contrast, RPN13 Pru C^60,80,121.
# NMR spectra were acquired at 25° C. or 10° C. on Bruker NMR spectrometers operating at 850 or 900 MHz and equipped with cryogenically cooled probes. Processing was performed in NMRPipe^13 and the resulting spectra visualized with XEASY.^3 Protein concentrations were calculated by extinction coefficients based on amino acid composition and absorbance at 280 nm for protein dissolved in 6 M guanidine-HCl.
# RPN13 Pru domain and RA190-exposed RPN13, RPN13 Pru domain, RPN13 Pru C60,80,121A, and RPN13 Pru C88A at protein concentrations of 1 μg/μL were treated with formic acid and injected onto a Nano2D-LC HPLC system (Eksigent, Dublin, Calif.) equipped with an Agilent Zorbax 300SB C8 column (3 mm ID, 10 cm length, 3.5 μm particle size). The samples were subjected to 10 min of incubation in 98% H2O:2% CH3CN, a 20 min linear gradient at 10 μL/min flow rate to 75% H2O:25% CH3CN followed by a 12 min linear gradient to 5% H2O:95% CH3CN and then a 2 min hold. Analysis was conducted by positive ionization electrospray with an LTQ-Orbitrap Velos instrument (Thermo Scientific, Waltham, Mass.) and adducts were quantified utilizing the Orbitrap detector with a resolution of 100,000 at a scan range of 400-2000 m/z.
# [2] = Pharmacokinetic measurements, plasma; assay type: in vivo, mouse; details: 10 mg/kg i.p., BALB/c mice
# Method: (§2) Tissue was harvested at 48 hr after single-dose intraperitoneal administration in non-tumor bearing mice. Blood was collected by cardiac puncture under anesthesia into heparinized syringes and centrifuged to obtain plasma. Tissues were rapidly dissected and snap frozen in liquid nitrogen. Samples were stored frozen at −70° C. until analysis. […] Tissue homogenates were prepared at a concentration of 200 mg/mL in PBS and further diluted 1:10 in mouse plasma before extraction using acetonitrile containing temazepam (100 ng/mL). Separation was achieved on Waters X-Terra™ C18 (50 mm×2.1 mm i.d., 3 μm) at room temperature using isocratic elution with acetonitrile/water mobile phase (70:30, v/v) containing 0.1% formic acid at a flow rate of 0.2 mL/min. […] Samples were quantitated over the assay range of 10 to 1000 ng/mL or 0.6 to 60 μg/g. […] Cmax and Tmax were the observed values from the mean data. The AUClast was calculated using the log-linear trapezoidal rule to the end of sample collection (AUClast) and extrapolated to infinity (AUC0-∞) by dividing the last quantifiable concentration by the terminal disposition rate constant (λz), which was determined from the slope of the terminal phase of the concentration-time profile. The half-life (T1/2) was determined by dividing 0.693 by λz. Relative bioavailability was calculated as follows: […]
# [3] = Tissue levels 48 hr after single i.p. dose; assay type: in vivo, mouse; details: 48 hr after single i.p. dose of 10 mg/kg
# Method: as §2
# [4] = Pharmacokinetic measurements, plasma; assay type: in vivo, mouse; details: 20 mg/kg oral, BALB/c mice
# U266 cells = test: Active caspase-3 by FACS; assay type: cell-based; details: 0.5 μM, 8 h
# Method: U266 cells were treated with RA195 (0.5 μM) and Bz(0.5 μM) for the period of 8 h. Cells were stained for PE-conjugated Caspase-3 antibody and measured active caspase-3 by FACS.
# T1 sequence (Q16186 1-150): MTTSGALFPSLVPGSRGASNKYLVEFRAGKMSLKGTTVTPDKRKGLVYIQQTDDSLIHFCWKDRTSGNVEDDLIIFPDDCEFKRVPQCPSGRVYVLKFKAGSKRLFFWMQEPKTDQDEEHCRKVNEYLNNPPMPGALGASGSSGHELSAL
smiles,measurement,setting,value
"Cl.N[C@@H](Cc1ccccc1)C(=O)N1CC(=Cc2ccc(Cl)c(Cl)c2)C(=O)C(=Cc2ccc(Cl)c(Cl)c2)C1 [RA190, 3,5-bis(3,4-dichlorobenzylidene)-1-(S-2-amino-3-phenyl)-piperidin-4-one-HCl salt]",IC50,ES-2,750 nM
same,IC50,NCl-H929,50 nM
same,degradation of Ub-AMC,[1],minimally affected
same,site of RA190 ligation,RPN13 Pru domain,ligates to RPN13 C88
same,AUC,[2],4393 ng·h/mL
same,C1/F,[2],38.3 mL/min/kg
same,Cmax,[2],808 ng/mL
same,"T1/2,α (distribution half-life)",[2],4.2 h
same,"T1/2,β (terminal half-life)",[2],25.5 h
same,Ud/F,[2],83.61 L/kg
same,RA190 detected in brain,[3],not brain
same,RA190 detected in kidney,[3],0.61 µg/g
same,RA190 detected in liver,[3],0.57 µg/g
same,RA190 detected in lung,[3],0.66 µg/g
same,RA190 detected in spleen,[3],0.59 µg/g
same,AUC,[4],634 ng·h/mL
same,C1/F,[4],527 mL/min/kg
same,Cmax,[4],133 ng/mL
same,T1/2β,[4],2.6 h
same,Ud/F,[4],117.3 L/kg
Cl.NCCCC[C@H](NC(=O)OCC1c2ccccc2-c2ccccc21)C(=O)N1C/C(=C\c2ccc(Cl)c(Cl)c2)C(=O)/C(=C/c2ccc(Cl)c(Cl)c2)C1 [RA195],active caspase-3,U266 cells,caused an increase in caspase-3 expression
